From patent US11136296B2, “Substituted N-arylethyl-2-arylquinoline-4-carboxamides and use thereof” (Bayer Aktiengesellschaft, priority 2017, dated 2021)

biological target: FP receptor (Homo sapiens (Human), UniProt P43088); test: In vitro test of inhibition of human FP receptor activity (PGF2α-induced calcium flux in FP-expressing CHEM1 cells); type: cell-based; conditions: PGF2α-induced (2 nM) calcium flux in FP-expressing CHEM1 cells; some as mean values from multiple determinations
Source text: Table 1 below lists the IC50 values from this assay for individual working examples of the invention (some as mean values from multiple independent individual determinations): […]

Chain of FP receptor (P43088 whole entry): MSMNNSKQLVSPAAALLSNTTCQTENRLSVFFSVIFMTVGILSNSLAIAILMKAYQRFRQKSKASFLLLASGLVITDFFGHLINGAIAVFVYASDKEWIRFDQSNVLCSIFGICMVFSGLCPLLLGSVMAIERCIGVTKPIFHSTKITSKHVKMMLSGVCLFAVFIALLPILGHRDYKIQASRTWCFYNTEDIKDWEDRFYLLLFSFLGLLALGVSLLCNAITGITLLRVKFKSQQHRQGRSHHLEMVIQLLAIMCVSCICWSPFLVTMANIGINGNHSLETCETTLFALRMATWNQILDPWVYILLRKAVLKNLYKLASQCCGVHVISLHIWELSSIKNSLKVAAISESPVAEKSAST

Question: How did the IC50 turn out when `Cc1c(-c2ccccc2)nc2ccc(Br)cc2c1C(=O)NCC(C)(CC(=O)O)c1ccccc1Cl` (racemic) [Example 114, (+/−)-4-{[(6-Bromo-3-methyl-2-phenylquinolin-4-yl)carbonyl]amino}-3-(2-chlorophenyl)-3-methylbutanoic Acid] was run?
Answer: The IC50 was 0.018 µM.

Question: How did the IC50 turn out when `Cc1c(-c2ccccc2)nc2ccc(Br)cc2c1C(=O)NCC(C)(CC(=O)O)c1ccccn1` (racemic) [Example 117, (+/−)-4-{[(6-Bromo-3-methyl-2-phenylquinolin-4-yl)carbonyl]amino}-3-methyl-3-(pyridin-2-yl)butanoic Acid] was run?
Answer: The IC50 was 0.24 µM.

Question: `COc1ccccc1C(C)(CNC(=O)c1c(C)c(-c2ccccc2)nc2ccc(Br)cc12)CC(=O)O` (racemic) [Example 120, (+/−)-4-{[(6-Bromo-3-methyl-2-phenylquinolin-4-yl)carbonyl]amino}-3-(2-methoxyphenyl)-3-methylbutanoic Acid] was tested. Which IC50 did it give?
Answer: Its IC50 is 0.03 µM.

Question: With `COc1ccc(F)cc1C(CNC(=O)c1c(C)c(-c2ccccc2)nc2ccc(Br)cc12)CC(=O)O` (racemic) [Example 123, (+/−)-4-{[(6-Bromo-3-methyl-2-phenylquinolin-4-yl)carbonyl]amino}-3-(5-fluoro-2-methoxyphenyl)butanoic Acid] as the compound, how does the IC50 read?
Answer: The IC50 was 0.011 µM.

Question: `COc1cccc(F)c1C(CNC(=O)c1c(C)c(-c2ccccc2)nc2ccc(Br)cc12)CC(=O)O` (racemic) [Example 126, (+/−)-4-{[(6-Bromo-3-methyl-2-phenylquinolin-4-yl)carbonyl]amino}-3-(2-fluoro-6-methoxyphenyl)butanoic Acid] was tested. Which IC50 did it give?
Answer: Its IC50 is 0.039 µM.

Question: `CCOc1ccccc1C(CNC(=O)c1c(C)c(-c2ccccc2)nc2ccc(Br)cc12)CC(=O)O` (racemic) [Example 129, (+/−)-4-{[(6-Bromo-3-methyl-2-phenylquinolin-4-yl)carbonyl]amino}-3-(2-ethoxyphenyl)butanoic Acid] was tested. Which IC50 did it give?
Answer: The IC50 was 0.13 µM.

Question: With `COc1ccc(F)cc1C(C)(CNC(=O)c1c(C)c(-c2ccccc2)nc2ccc(Br)cc12)CC(=O)O` (racemic) [Example 132, (+/−)-4-{[(6-Bromo-3-methyl-2-phenylquinolin-4-yl)carbonyl]amino}-3-(5-fluoro-2-methoxyphenyl)-3-methylbutanoic Acid] as the compound, how does the IC50 read?
Answer: Its IC50 is 0.032 µM.

Question: Which IC50 does the source give for `COc1c(F)cc(F)cc1C(C)(CNC(=O)c1c(C)c(-c2ccccc2)nc2ccc(Br)cc12)CC(=O)O` (racemic) [Example 135, (+/−)-4-{[(6-Bromo-3-methyl-2-phenylquinolin-4-yl)carbonyl]amino}-3-(3,5-difluoro-2-methoxyphenyl)-3-methylbutanoic Acid] here?
Answer: The IC50 was 0.013 µM.

Question: Which IC50 does the source give for `COc1cc(F)ccc1C(C)(CNC(=O)c1c(C)c(-c2ccccc2)nc2ccc(Br)cc12)CC(=O)O` (racemic) [Example 138, (+/−)-4-{[(6-Bromo-3-methyl-2-phenylquinolin-4-yl)carbonyl]amino}-3-(4-fluoro-2-methoxyphenyl)-3-methylbutanoic Acid] here?
Answer: Its IC50 is 0.042 µM.

Question: `COc1ccccc1C(CNC(=O)c1c(C)c(-c2ccccc2)nc2ccc(Br)cc12)C(F)(F)C(=O)O` (racemic) [Example 141, (+/−)-4-{[(6-Bromo-3-methyl-2-phenylquinolin-4-yl)carbonyl]amino}-2,2-difluoro-3-(2-methoxyphenyl)butanoic Acid] was tested. Which IC50 did it give?
Answer: The IC50 was 0.024 µM.

Question: For `COc1cccc(F)c1C(C)(CNC(=O)c1c(C)c(-c2ccccc2)nc2ccc(Br)cc12)CC(=O)O` (racemic) [Example 142, (+/−)-4-{[(6-Bromo-3-methyl-2-phenylquinolin-4-yl)carbonyl]amino}-3-(2-fluoro-6-methoxyphenyl)-3-methylbutanoic Acid], which IC50 is on record?
Answer: The IC50 was 0.015 µM.

Question: Which IC50 does the source give for `Cc1c(-c2ccccc2)nc2ccc(Br)cc2c1C(=O)NC(C)C(CC(=O)O)c1ccccc1Cl` (racemic) [Example 145, (+/−)-4-{[(6-Bromo-3-methyl-2-phenylquinolin-4-yl)carbonyl]amino}-3-(2-chlorophenyl)pentanoic Acid] here?
Answer: Its IC50 is 0.049 µM.
